# Data: PubChem BioAssay AID2483 (Sanford-Burnham Center for Chemical Genomics, 2010)
# Active and inactive are the calls of the source. The rule behind the calls is not given here.
# Test system: TNFa-induced NF-kB reporter inhibition, human cells
# Assay: analog potency on TNFa NF-kB signaling – cell-based, set 2, SAR follow-up (AID 2483)
row,IC50,SMILES
1,> 20 µM (inactive),CCCn1c(SCCc2ccccc2)nc2c1c(=O)[nH]c(=O)n2C
2,> 20 µM (inactive),CCCCCn1c(SCCc2ccccc2)nc2c1c(=O)[nH]c(=O)n2C
3,5.69 µM,CCCCn1c(CN2CCN(c3cccc(Cl)c3)CC2)nc2c1c(=O)n(C)c(=O)n2C
4,> 20 µM (inactive),CC(C)n1c(SCCCc2ccccc2)nc2c1c(=O)[nH]c(=O)n2C
5,16.9 µM,CCC(=O)Nc1nc2ccccc2n1Cc1ccccc1Cl
6,5.21 µM,C/C(Cl)=C\Cn1c(NCCc2ccccc2)nc2c1c(=O)n(C)c(=O)n2C
7,> 20 µM (inactive),Cc1ccc(S(=O)(=O)n2c(N)nc3ccccc32)cc1
8,16.8 µM,C=CCn1c(SCCCc2ccccc2)nc2c1c(=O)[nH]c(=O)n2C
9,> 20 µM (inactive),O=C(Nc1nc2ccccc2n1Cc1ccc(Cl)cc1)c1ccco1
10,> 20 µM (inactive),C/C=C/Cn1c(SCc2ccc(Cl)cc2)nc2c1c(=O)[nH]c(=O)n2C
11,> 20 µM (inactive),C/C=C/Cn1c(SCc2ccccc2)nc2c1c(=O)[nH]c(=O)n2C
12,> 20 µM (inactive),COCCn1c(SCCCc2ccccc2)nc2c1c(=O)[nH]c(=O)n2C
13,1.32 µM,Cn1c(=O)[nH]c(=O)c2c1nc([N+](=O)[O-])n2Cc1ccccc1
14,> 20 µM (inactive),CCCCn1c(SCC(=O)c2ccccc2)nc2c1c(=O)[nH]c(=O)n2C
15,8.49 µM,C/C=C/Cn1c(SCCCc2ccccc2)nc2c1c(=O)[nH]c(=O)n2C
16,3.31 µM,CCCn1c(SCC(=O)Nc2nc3c(s2)CCCC3)nc2c1c(=O)n(C)c(=O)n2C
17,13.1 µM,CCCCn1c(SCC(=O)Nc2nnc(CC)s2)nc2c1c(=O)n(C)c(=O)n2C
18,> 20 µM (inactive),CC(C)Sc1nc2c(c(=O)[nH]c(=O)n2C)n1Cc1ccccc1
